Where only a bound is given, the exact number is not on record here.

From patent US20150126530A1, “Novel Substituted Imidazopyrimidines as Gpbar1 Receptor Modulators” (Torrent Pharmaceuticals Limited., priority 2011, published 2015) come the findings set out here.

The target of experiment [1] is T1, human TGR5 (Homo sapiens, UniProt Q8TDU6).
T1 construct: host or cells: CHO cells (ATCC)
T1 sequence (Q8TDU6 1-330): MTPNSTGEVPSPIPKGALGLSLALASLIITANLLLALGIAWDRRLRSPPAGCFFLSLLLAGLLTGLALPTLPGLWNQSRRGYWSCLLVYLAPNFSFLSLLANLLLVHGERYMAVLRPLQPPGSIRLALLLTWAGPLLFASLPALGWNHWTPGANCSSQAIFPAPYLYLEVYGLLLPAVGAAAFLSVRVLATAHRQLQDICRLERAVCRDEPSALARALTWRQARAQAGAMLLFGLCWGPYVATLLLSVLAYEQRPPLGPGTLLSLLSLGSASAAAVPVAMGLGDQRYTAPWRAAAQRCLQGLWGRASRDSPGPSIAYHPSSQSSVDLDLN
Briefly: cAMP Measurement Assay (Alphascreen). The class given is cell-based. Conditions: cAMP levels, CHO cells transfected with human TGR5, one hour. The protocol: (B) cAMP Measurement Assay:
CHO cells (ATCC) were transfected with human TGR5 vector (oriGene). Transfected cells were treated with vehicle control or test compounds for one hour and then lysed. Levels of cAMP were measured in cell lysates employing Alphascreen cAMP assay kit (Perkin Elmer) and results were expressed EC50 values which are summarized in Table 3.
On the technique in general: Alpha assays give light when donor and acceptor beads are brought close together.

The target of experiment [2] is T1, human TGR5. Kind of experiment: cAMP Responsive Element (CRE)-Reporter Assay. The experiment is classed as cell-based. Conditions: luciferase activity relative to vehicle control, five hours, CHO cells transfected with human TGR5 and CRE-luciferase. The protocol: (A) cAMP Responsive Element (CRE)-Reporter Assay:
CHO cells (ATCC) were transfected with human TGR5 (oriGene) and CRE-luciferase reporter vector. Transfected cells were treated with vehicle control or test compounds (Conc 10 μM) for five hours and then lysed. Cell lysates were monitored for luciferase acivity. Increase in luciferase activity is considered as a result of TGR5 activation. Results were expressed as fold induction as compared to vehicle control.
Results are summarized in Table 2 where, + indicates 1.5-2 fold while ++, +++, ++++ indicate 2-3 fold, 3-4 fold, and >4 fold induction respectively relative to vehicle control when tested at 10 μM concentration.
Background: A reporter such as luciferase makes a cellular process visible.

The test system of experiment [3] is Diabetic Hamster. Kind of experiment: Single dose efficacy on glucose tolerance (OGTT) in diabetic hamster. The class given is in vivo. The following applies: Mesocricetus auratus, read-out: Decrease in AUC of glucose % change w.r.t. vehicle control group; for inhibition in vivo at 36 mg/kg: single oral dose 36 mg/kg. The protocol: i) Evaluation of Single Dose Efficacy of Test Compounds on Glucose Tolerance:
Thus efficacy can be assessed through the effect of test compounds on lowering of plasma glucose during OGTT through stimulating glucose stimulated insulin secretion.
The potential of test compounds in lowering of Plasma Glucose was evaluated in Oral glucose tolerance test (OGTT) in Diabetic Hamster Model, where diabetes has been induced by administration of low dose of Streptozotocin (STZ) to the High fat diet (HFD) fed glucose intolerant animals. The diabetic hamsters show impaired glucose stimulated insulin secretion and higher plasma glucose excursions than the normal animals, which remains elevated beyond 2 hrs post glucose load. Thus the animal model can be used for evaluating the potential of test compounds to lower plasma glucose through stimulating glucose stimulated insulin secretion. On the day of study post 6 hrs of fasting, test compounds or vehicle was administered orally at dose volume of 2 ml/kg to the hamsters of the respective treatment groups. Subsequent to dosing, a pre-glucose load blood sample was taken. A glucose load of 40% solution at 5 ml/Kg dose volume was administered orally. Blood samples through retroorbital plexus were taken at 15, 30 60 & 120 min. post glucose load and plasma was separated for glucose measurement. Post glucose load percentage change in plasma glucose and AUC of % change glucose by the treatment was assessed.

The test system of experiment [4] is Human enteroendocrine cell-line (NCI-H716). Kind of experiment: Measurement of Glucagon Like Peptide-1 (GLP-1) secretion. Conditions: NCI-H716 cells, one hour, with respect to vehicle control. The class given is cell-based. The method, then: (C) Measurement of Glucagon Like Peptide-1 (GLP-1):
Human enteroendocrine cell-line (NCI-H716) were incubated with vehicle or test compounds for one hour. At the end of incubation period, levels of secreted GLP-1 in culture medium were measured by GLP-1 ELISA kit (Millipore). Results are summarized as fold increase in GLP secretion with respect to vehicle control in Table 4.

As to `CN(C(=O)c1c(-c2ccccc2)nc2ncccn12)c1ccc(Cl)cc1` [Compound no. 1, N-(4-chlorophenyl)-N-methyl-2-phenylimidazo[1,2-a]pyrimidine-3-carboxamide], in experiment [1], the EC50 (in general, the concentration giving half of the maximal effect) worked out at 35 nM. In experiment [2], the fold induction (in general, the ratio of treated to control signal) at 10 µM is above 4. The inhibition in vivo at 36 mg/kg in experiment [3] was 33%.
Turning to `CN(C(=O)c1c(-c2ccc(F)cc2)nc2ncccn12)c1ccc(F)cc1` [Compound no. 22, N,2-bis(4-fluorophenyl)-N-methylimidazo[1,2-a]pyrimidine-3-carboxamide], the “Fold increase in GLP Release” value in experiment [4] worked out at 2.13 fold. Further, the fold induction at 10 µM in experiment [2] lay in the range of 3 to 4. Moreover, the inhibition in vivo at 36 mg/kg in experiment [3] came to 20%.
As to `CN(C(=O)c1c(-c2ccc3c(c2)OCO3)nc2ncccn12)c1ccc(F)cc1` [Compound no. 28, 2-(1,3-benzodioxol-5-yl)-N-(4-fluorophenyl)-N-methylimidazo[1,2-a]pyrimidine-3-carboxamide], in experiment [4], the “Fold increase in GLP Release” value amounted to 2.03 fold. In experiment [2], the fold induction at 10 µM is 2 to 3. Further, the inhibition in vivo at 39 mg/kg in experiment [3] (single oral dose 39 mg/kg) is 5%.
Consider `CN(C(=O)c1c(-c2cccc(C#N)c2)nc2ncccn12)c1ccc(Cl)cc1` [Compound no. 36, N-(4-chlorophenyl)-2-(3-cyanophenyl)-N-methylimidazo[1,2-a]pyrimidine-3-carboxamide], for which the fold induction at 10 µM in experiment [2] was in the range of 2 to 3. In experiment [3] (single oral dose 38 mg/kg), the inhibition in vivo at 38 mg/kg was found to be 8%.
Compound `CC(C)N(C(=O)c1c(-c2ccc(F)cc2)nc2ncccn12)c1ccc(Cl)cc1` [Compound no. 65, N-(4-chlorophenyl)-2-(4-fluorophenyl)-N-(propan-2-yl)imidazo[1,2-a]pyrimidine-3-carboxamide] registered a fold induction at 10 µM in experiment [2] of 3 to 4. In addition, the inhibition in vivo at 41 mg/kg in experiment [3] (single oral dose 41 mg/kg) came to 10%.
Take `CN(C(=O)c1c(-c2ccc(O)cc2)nc2ncccn12)c1ccc(Cl)cc1` [compound 30, N-(4-chlorophenyl)-2-(4-hydroxyphenyl)-N-methylimidazo[1,2-a]pyrimidine-3-carboxamide]: in experiment [4], the “Fold increase in GLP Release” value amounted to 1.69 fold. Further, in experiment [2], the fold induction at 10 µM lay in the range of 3 to 4.
In experiment [2], `CN(C(=O)c1c(-c2cccc(C(F)(F)F)c2)nc2ncccn12)c1ccc(Cl)cc1` [compound 31, N-(4-chlorophenyl)-N-methyl-2-[3-(trifluoromethyl)phenyl]imidazo[1,2-a]pyrimidine-3-carboxamide] registered a fold induction at 10 µM of 3 to 4.
As for `O=C(Nc1ccc(Cl)cc1)c1c(-c2ccc(F)cc2)nc2ncccn12` [compound 32, N-(4-chlorophenyl)-2-(4-fluorophenyl)imidazo[1,2-a]pyrimidine-3-carboxamide], the fold induction at 10 µM in experiment [2] is 1.5 to 2.
Turning to `COc1ccc(NC(=O)c2c(-c3ccc(F)cc3)nc3ncccn23)c(OC)c1` [compound 34, N-(2,4-dimethoxyphenyl)-2-(4-fluorophenyl)imidazo[1,2-a]pyrimidine-3-carboxamide], the fold induction at 10 µM in experiment [2] was in the range of 1.5 to 2.
Turning to `CN(C(=O)c1c(-c2cccc(C#N)c2)nc2ncccn12)c1ccc(F)cc1` [compound 35, 2-(3-cyanophenyl)-N-(4-fluorophenyl)-N-methylimidazo[1,2-a]pyrimidine-3-carboxamide], in experiment [2], the fold induction at 10 µM fell in the range of 2 to 3.
Same read-out and setting: next, `CN(C(=O)c1c(-c2ccc(S(=O)(=O)N(C)C)cc2)nc2ncccn12)c1ccc(Cl)cc1` [compound 37, N-(4-chlorophenyl)-2-[4-(dimethylsulfamoyl)phenyl]-N-methylimidazo[1,2-a]pyrimidine-3-carboxamide]: 1.5 to 2; `CN(C(=O)c1c(-c2ccc(S(=O)(=O)N(C)C)cc2)nc2ncccn12)c1ccc(F)cc1` [compound 38, 2-[4-(dimethylsulfamoyl)phenyl]-N-(4-fluorophenyl)-N-methylimidazo[1,2-a]pyrimidine-3-carboxamide]: 1.5 to 2; `O=C(Nc1ccc(F)cc1F)c1c(-c2ccc(F)cc2)nc2ncccn12` [compound 39, N-(2,4-difluorophenyl)-2-(4-fluorophenyl)imidazo[1,2-a]pyrimidine-3-carboxamide]: 1.5 to 2.
The same measure, in the same setting: with `CN(C(=O)c1c(-c2ccc(F)cc2)nc2ncccn12)c1ccc(F)cc1F` [compound 40, N-(2,4-difluorophenyl)-2-(4-fluorophenyl)-N-methylimidazo[1,2-a]pyrimidine-3-carboxamide] the figure was 2 to 3; with `COc1ccc(-c2nc3ncccn3c2C(=O)N(C)c2ccc(F)cc2)cc1F` [compound 41, 2-(3-fluoro-4-methoxyphenyl)-N-(4-fluorophenyl)-N-methylimidazo[1,2-a]pyrimidine-3-carboxamide], 2 to 3.
Same read-out and setting: next, `CN(C(=O)c1c(-c2ccc(O)c(F)c2)nc2ncccn12)c1ccc(F)cc1` [compound 42, 2-(3-fluoro-4-hydroxyphenyl)-N-(4-fluorophenyl)-N-methylimidazo[1,2-a]pyrimidine-3-carboxamide]: 2 to 3; `COc1ccc(-c2nc3ncccn3c2C(=O)N(C)c2ccc(F)cc2F)cc1F` [compound 43, N-(2,4-difluorophenyl)-2-(3-fluoro-4-methoxyphenyl)-N-methylimidazo[1,2-a]pyrimidine-3-carboxamide]: 1.5 to 2.
As to `COc1ccc(-c2nc3ncccn3c2C(=O)N(C)c2ccc(Cl)cc2)cc1F` [compound 44, N-(4-chlorophenyl)-2-(3-fluoro-4-methoxyphenyl)-N-methylimidazo[1,2-a]pyrimidine-3-carboxamide], the fold induction at 10 µM in experiment [2] was 3 to 4.
On the same count and under the same terms, next, `COc1ccc(-c2nc3ncccn3c2C(=O)N(C)c2ccc(F)c(Cl)c2)cc1F` [compound 45, N-(3-chloro-4-fluorophenyl)-2-(3-fluoro-4-methoxyphenyl)-N-methylimidazo[1,2-a]pyrimidine-3-carboxamide]: above 4; `CN(C(=O)c1c(Oc2ccccc2)nc2ncccn12)c1ccc(Cl)cc1` [compound 47, N-(4-chlorophenyl)-N-methyl-2-phenoxyimidazo[1,2-a]pyrimidine-3-carboxamide]: 3 to 4.
As for `CN(C(=O)c1c(Oc2ccc(Cl)cc2)nc2ncccn12)c1ccc(Cl)cc1` [compound 48, 2-(4-chlorophenoxy)-N-(4-chlorophenyl)-N-methylimidazo[1,2-a]pyrimidine-3-carboxamide], the fold induction at 10 µM in experiment [2] was 2 to 3.
In experiment [2], `COc1ccc(Oc2nc3ncccn3c2C(=O)N(C)c2ccc(Cl)cc2)cc1` [compound 49, N-(4-chlorophenyl)-2-(4-methoxyphenoxy)-N-methylimidazo[1,2-a]pyrimidine-3-carboxamide] came in with a fold induction at 10 µM of 3 to 4.
Still for that read-out and setting: next, `CN(C(=O)c1c(Oc2ccc(Cl)cc2)nc2ncccn12)c1ccc(F)cc1` [compound 51, 2-(4-chlorophenoxy)-N-(4-fluorophenyl)-N-methylimidazo[1,2-a]pyrimidine-3-carboxamide]: 2 to 3; `COc1ccc(N(C)C(=O)c2c(Oc3ccc(F)cc3)nc3ncccn23)cc1` [compound 52, 2-(4-fluorophenoxy)-N-(4-methoxyphenyl)-N-methylimidazo[1,2-a]pyrimidine-3-carboxamide]: 3 to 4; `O=C(c1c(-c2ccc(F)cc2)nc2ncccn12)N(c1ccc(Cl)cc1)C1CC1` [compound 136, N-(4-chlorophenyl)-N-cyclopropyl-2-(4-fluorophenyl)imidazo[1,2-a]pyrimidine-3-carboxamide]: 3 to 4.
